“And” between values parts separate entries of the source, which are not always exact repeats. Equal values may be shown once.
Experiments:
mouse pMCAO stroke model = assay: Mouse pMCAO stroke model, infarct volume; type: in vivo; conditions: −60 min (one hour prior to occlusion), infarct volume 24 hours later, vs vehicle treated mice
Experimental: Methods: The experimental procedure was based on the method of Bachauβ et al (1992). Male CD-1 mice weighing 35–40 g were anaesthetized with chloral hydrate (400 mg/kg). Under an operating microscope, a 3 mm vertical skin incision was made 2 mm behind the right orbit. The temporal muscle was deflected and a small craniotomy carried out to expose the dura. The dura was incised and deflected and the distal part of the right […] exposed. The artery was occluded upstream to the main bifurcation by bipolar electroagulation with fine forceps. Infarct volume was measured 24 hours later using 2% triphenyltetrazolium chloride solution. In this experimental paradigm, HP 184 was orally administered to non-fasted mice (10 per group) one hour prior to occlusion. Infarct volume reduction was based on comparison to 1% acetic acid, vehicle, treated mice.

[1] = system: photothrombotic cerebral lesion; assay: Edema after photothrombotic cerebral lesion in the rat; type: in vivo
Experimental: Method: Male Sprague Dawley rats (180–200 g bw) were anaesthetized with chloral hydrate (400 mg/kg ip) and placed in a stereotaxic apparatus. The skin was opened to reveal the skull and a cold light (Bioblock 150 W) was placed in contact with the right side of the skull forward of lambda. Bengal rose dye (10 mg/kg iv in saline) was administered intravenously and illumination of the skull started immediately and continued for 5 minutes. The skin was then sutured closed over the skull and the animal returned to its cage. Twenty-four hours after the photothrombotic lesion animals received HP184 made up in 1% tween in water by intravenous route at 0, 10 or 20 mg/kg body weight in a volume of 5 ml/kg. One hour later, animals were killed by decapitation and their brains removed (see appendix for protocol). Core samples were taken at the site of the lesion, and contralateral to the lesion, using a 6 mm diameter cork borer. Water content was determined by wet weight of tissue/dry weight of tissue and edema expressed as % excess water on lesioned sample compared with sample from contralateral hemisphere for each rat.

[2] = system: transient focal cerebral ischemia; assay: Transient focal cerebral ischemia in rats, lesion size; type: in vivo, rat; conditions: 10 mg/kg iv 1 hour after ischemia onset
Experimental: Methods: Male Sprague-Dawley rats [Iffa Credo, France] weighing about 220–240 g were anaesthetized with halothane (1.4%) in a nitrous oxide-oxygen mixture (70:30). Both common carotid arteries (CCAs) were isolated. The left middle cerebral artery (MCA) exposed via a temporal craniotomy was occluded with a microclip, and simultaneously the CCAs were occluded for 1 hour. Both body and cerebral temperatures were kept at normothermia. Following surgery animals were returned to their home cages in a room warmed at 24–26° C.
HP184, dissolved in 1% tween (in injectable sterile water), was administered at 10 and 20 mg/kg iv 1 hour after ischemia onset, and control rats received the vehicle according to the same protocol. At 24 h post-ischemia, a neurological function using a 9 points grading scale was performed blindly.
Thereafter rats were killed and brains were removed. Fresh sections were cut with a brain matrix and stained with triphenyl tetrazolium chloride 2% at 37° C. for 5 min. The sections were then stored in 10% formalin at 4° C. for 24 h. Areas of infarction were measured with an image analyzer (Leica Q500).

[3] = system: voltage-dependent K+ channels; assay: Potassium channel currents in PC12 cells, patch clamp; type: cell-based; conditions: 10 μM, 200 msec clamp pulses to +40 mV from −80 mV, n=4
Experimental: PC12 cells (ATCC, Rockville, Md.) were grown in Dulbecco's modified Eagle's media supplemented with 10% fetal bovine serum (GIBCO BRL Grand Island, N.Y.). Potassium channel currents were measured using standard patch clamp electrophysiolgy protocols as detailed previously (Rampe et al., 1998).
Potassium channel currents were elicited by 200 msec clamp pulses to +40 mV from a holding potential of −80 mV. […] Application of HP184 (10 μM) reduced the amplitude of this current and enhanced the rate of current decay. When current was measured at the end of the pulse, HP184 reduced current amplitude by 75±4% (n=4). The results are consisent with the notion that HP184 acts as an antagonist of voltage-dependent K^+ channels by blocking an activated state.

[4] = system: spinal cord crush-induced motor impairments; assay: Acute treatment after moderate spinal cord crush (1.4 mm), Open Field Walking Scale; type: in vivo, rat
[5] = system: demyelinated area at the moderate compression injury site; assay: Histological study of spinal cords, demyelinated area (luxol fast blue); type: in vivo, rat
Experimental: A study to test whether the treatment with HP184 affected the amount of myelin in rats with moderate long term spinal cord crush injury when administered long after spinal cord injury.
The spinal cords from rats described above in the assessment were used for this study.
(50–60 mg/kg body weight, i.p.) and perfused transcardically—first with 100 mL 0.05M phosphate buffed saline (PBS) containing 0.1% heparin, followed by 300–500 mL of 4% paraformaldehyde (PFA). Segments T9 to L1 of the spinal cords were taken out, then cryo-protected in 30% sucrose solution and frozen at −70° C. in 10.24% polyvinyl alcohol and 4.26% polyethylene glycol.
A segment of each cord including the lesion site plus 10 mm rostral and caudal to the lesion site was embedded in Tissue Tek medium. Serial sections were cut longitudinally at 20 μm intervals on a cryostat. Every third section was stained with luxol fast blue for myelin. The evaluation was performed by observers blinded as to treatment, on coded slides. Sections were examined under a light microscope for the extent of demyelination (the area without luxol fast blue staining).
For determinations of the maximal demyelinated area of the cord, the whole section was digitized on photographs using a Zeiss microscope. The extent of demyelination was measured at the lesion center using a computerized Bioquant BQ-TCW98 image analysis progrem by an investigator who was blind to treatment group.
Statistical analysis was performed on a Macintosh computer using GB-Stat ppc 6.5.2. The histological results were analyzed by the Kruskal-Wallis nonparametric analysis of variance (ANOVA). Post hoc comparisons were made using Mann-Whitney U tests.

NO production = assay: LPS-induced NO production in mice, plasma nitrate by Griess assay; type: in vivo, mouse; conditions: 30 mg/kg ip 30 minutes prior to LPS 3 mg/kg ip, plasma 5 hours after LPS
Experimental: Mice were injected with 30 mg/kg HP 184 (ip) 30 minutes prior to LPS (3 mg/kg, ip). Mice were sacrificed 5 hours after LPS injection, and plasma collected. Nitrate levels were determined by the Griess assay. Groups were composed of 9–10 mice each.

[6] = system: moderate chronic (35 days post-injury) spinal cord crush; assay: Long standing moderate spinal cord crush (35 days), OFT score; type: in vivo, rat; conditions: 3 mg/kg po, thirty-five days after moderate injury, single dose then daily for 4 more days
[7] = micromolar brain concentrations one hour after ip administration of 30 mg/kg in rats; cited from earlier work

## CCCN(c1ccncc1F)n1cc(C)c2ccccc21 [HP184, N-(3-fluoro-4-pyridinyl)-N-propyl-3-methyl-1H-indole-1-amine]
Mouse pMCAO stroke model; 1 mg/kg po
  % infarct volume reduction mean sem: 21 ± 3%
Mouse pMCAO stroke model; 10 mg/kg po
  % infarct volume reduction mean sem: 40 ± 2.5 % and 32 ± 11 %
[1]; 10 mg/kg iv at 24 h post lesion
  edema (% excess water) at 25 h post lesion: 3.61 ± 0.23 ns % excess water
[1]; 20 mg/kg iv at 24 h post lesion
  edema (% excess water) at 25 h post lesion: 3.20 ± 0.27 % excess water
[1]; 20 mg/kg iv, one hour after administration, 25 hours after lesion
  reduction of the edema in the right cerebral cortex: 22%
[2]; cortex
  reduction of lesion in the cortex: −45%
[2]; measured 24 h post-ischemia
  reduction of brain lesions: 41%
[3]
  reduction of current amplitude at the end of the pulse: 75±4%
[4]; 20 and 5 mg/kg ip within 15 minutes of crush, repeated days 2 and 3, FIG. 2
  rate and extent of improvement of OFT score: significantly different from vehicle treated rats
[4]; po 5–10 minutes prior to crush, then once a day days 2 and 3, vs vehicle treated group, FIG. 3
  rate and extent of improvement of OFT score: improved for all doses
[5]; 3 mg/kg po
  extent of demyelination, comparison of the groups: showed the least demyelination
[5]; 3 mg/kg/day by oral gavage from 35 to 41 days after moderate crush injury
  myelin at the site of injury: more myelin at the site of injury
[5]; HP184 0.3, 1 or 3 mg/kg po or 4-AP 0.6 mg/kg ip, days 35–42 after moderate crush
  myelinated / demyelinated area at the crush center, FIG. 7: significantly greater myelinated area than that of saline controls
NO production
  NO production (plasma nitrate), FIG. 9: inhibits NO production
[6]
  motor recovery, Open Field Walking Test: improves motor recovery after a single dose
[7]
  tolerability: very well-tolerated

From patent US7179821B2, “Method of treating of demyelinating diseases or conditions” (Aventis Pharmaceuticals Inc., priority 2001, dated 2007)
